Each compound was assayed on IRF3 activation in THP-1 Dual Cells (assay: IRF3 activation assay in THP-1 Dual Cells (QUANTI-Blue readout)). Conditions: Homo sapiens, THP1-Dual, 24 h, Table 2, 24 hours incubation.
Assay type: cell-based
How it was run: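 THP-1 Dual cells (100,000/well) were incubated with serially diluted compounds 24 h at 37 °C. […]; EC50 from percent control activity versus log concentration.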

How did the EC50 turn out when CCn1nc(C)cc1C(=O)Nc1nc2cc(C(N)=O)cc(OCCCNC(=O)OCC(=O)O)c2n1C/C=C/Cn1c2nc(-c3cc(C)nn3CC)ncc2c2cc(C(N)=O)cc(OCCCOC)c21 [Example 40, (E)-2-(((3-((5-carbamoyl-1-(4-(6-carbamoyl-2-(1-ethyl-3-methyl-1H-pyrazol-5-yl)-8-(3-methoxypropoxy)-9H-pyrimido[4,5-b]indol-9-yl)but-2-en-1-yl)-2-(1-ethyl-3-methyl-1H-pyrazole-5-carboxamido)-1H-benzo[d]imidazol-7-yl)oxy)propyl)carbamoyl)oxy)acetic Acid] was run?
The EC50 was < 50 nM.

Which EC50 does the source give for CCn1nc(C)cc1C(=O)Nc1nc2cc(C(N)=O)cc(OCCCNC(=O)NCC(=O)O)c2n1C/C=C/Cn1c2nc(-c3cc(C)nn3CC)ncc2c2cc(C(N)=O)cc(OCCCOC)c21 [Example 41, (E)-((3-((5-carbamoyl-1-(4-(6-carbamoyl-2-(1-ethyl-3-methyl-1H-pyrazol-5-yl)-8-(3-methoxypropoxy)-9H-pyrimido[4,5-b]indol-9-yl)but-2-en-1-yl)-2-(1-ethyl-3-methyl-1H-pyrazole-5-carboxamido)-1H-benzo[d]imidazol-7-yl)oxy)propyl)carbamoyl)glycine] here?
Its EC50 is < 50 nM.

Which EC50 does the source give for CCn1nc(C)cc1C(=O)Nc1nc2cc(C(N)=O)cc(OCCCNC(=O)[C@@H](N)CC(=O)O)c2n1C/C=C/Cn1c2nc(-c3cc(C)nn3CC)ncc2c2cc(C(N)=O)cc(OCCCOC)c21 [Example 42, (S,E)-3-amino-4-((3-((5-carbamoyl-1-(4-(6-carbamoyl-2-(1-ethyl-3-methyl-1H-pyrazol-5-yl)-8-(3-methoxypropoxy)-9H-pyrimido[4,5-b]indol-9-yl)but-2-en-1-yl)-2-(1-ethyl-3-methyl-1H-pyrazole-5-carboxamido)-1H-benzo[d]imidazol-7-yl)oxy)propyl)amino)-4-oxobutanoic Acid] here?
Its EC50 is 50 to 200 nM.

CCn1nc(C)cc1C(=O)Nc1nc2cc(C(N)=O)cc(OCCCOC(=O)NCCC(=O)O)c2n1C/C=C/Cn1c2nc(-c3cc(C)nn3CC)ncc2c2cc(C(N)=O)cc(OCCCOC)c21 [Example 43, (E)-3-(((3-((5-carbamoyl-1-(4-(6-carbamoyl-2-(1-ethyl-3-methyl-1H-pyrazol-5-yl)-8-(3-methoxypropoxy)-9H-pyrimido[4,5-b]indol-9-yl)but-2-en-1-yl)-2-(1-ethyl-3-methyl-1H-pyrazole-5-carboxamido)-1H-benzo[d]imidazol-7-yl)oxy)propoxy)carbonyl)amino)propanoic Acid] was tested. Which EC50 did it give?
Its EC50 is < 50 nM.

CCn1nc(C)cc1C(=O)Nc1nc2cc(C(N)=O)cc(OCCOCCOCCC(=O)O)c2n1C/C=C/Cn1c2nc(-c3cc(C)nn3CC)ncc2c2cc(C(N)=O)cc(OCCCOC)c21 [Example 44, (E)-3-(2-(2-((5-carbamoyl-1-(4-(6-carbamoyl-2-(1-ethyl-3-methyl-1H-pyrazol-5-yl)-8-(3-methoxypropoxy)-9H-pyrimido[4,5-b]indol-9-yl)but-2-en-1-yl)-2-(1-ethyl-3-methyl-1H-pyrazole-5-carboxamido)-1H-benzo[d]imidazol-7-yl)oxy)ethoxy)ethoxy)propanoic Acid] was tested. Which EC50 did it give?
Its EC50 is < 50 nM.

For CCn1nc(C)cc1C(=O)Nc1nc2cc(C(N)=O)cc(OCCCNS(=O)(=O)CCCC(=O)O)c2n1C/C=C/Cn1c2nc(-c3cc(C)nn3CC)ncc2c2cc(C(N)=O)cc(OCCCOC)c21 [Example 45, (E)-4-(N-(3-((5-carbamoyl-1-(4-(6-carbamoyl-2-(1-ethyl-3-methyl-1H-pyrazol-5-yl)-8-(3-methoxypropoxy)-9H-pyrimido[4,5-b]indol-9-yl)but-2-en-1-yl)-2-(1-ethyl-3-methyl-1H-pyrazole-5-carboxamido)-1H-benzo[d]imidazol-7-yl)oxy)propyl)sulfamoyl)butanoic Acid], which EC50 is on record?
The EC50 was < 50 nM.

For CCn1nc(C)cc1C(=O)Nc1nc2cc(C(N)=O)cc(OC)c2n1C/C=C/Cn1c2nc(-c3cc(C)nn3CC)ncc2c2cc(C(N)=O)cc(OCCCNC(=O)CCCC(=O)O)c21 [Example 46, (E)-5-(3-(6-carbamoyl-9-(4-(5-carbamoyl-2-(1-ethyl-3-methyl-1H-pyrazole-5-carboxamido)-7-methoxy-1H-benzo[d]imidazol-1-yl)but-2-enyl)-2-(1-ethyl-3-methyl-1H-pyrazol-5-yl)-9H-pyrimido[4,5-b]indol-8-yloxy)propylamino)-5-oxopentanoic Acid], which EC50 is on record?
Its EC50 is < 50 nM.

With CCn1nc(C)cc1C(=O)Nc1nc2cc(C(N)=O)cc(OC)c2n1C/C=C/Cn1c2nc(-c3cc(C)nn3CC)ncc2c2cc(C(N)=O)cc(OCCCNC(=O)OCCC(=O)O)c21 [Example 47, (E)-3-(3-(6-carbamoyl-9-(4-(5-carbamoyl-2-(1-ethyl-3-methyl-1H-pyrazole-5-carboxamido)-7-methoxy-1H-benzo[d]imidazol-1-yl)but-2-enyl)-2-(1-ethyl-3-methyl-1H-pyrazol-5-yl)-9H-pyrimido[4,5-b]indol-8-yloxy)propylcarbamoyloxy)propanoic Acid] as the compound, how does the EC50 read?
The EC50 was < 50 nM.

Which EC50 does the source give for CCn1nc(C)cc1C(=O)Nc1nc2cc(C(N)=O)cc(OCCCO)c2n1C/C=C/Cn1c2nc(-c3cc(C)nn3CC)ncc2c2cc(C(N)=O)cc(OCCCNC(=O)CCCC(=O)O)c21 [Example 48, (E)-5-(3-(6-carbamoyl-9-(4-(5-carbamoyl-2-(1-ethyl-3-methyl-1H-pyrazole-5-carboxamido)-7-(3-hydroxypropoxy)-1H-benzo[d]imidazol-1-yl)but-2-enyl)-2-(1-ethyl-3-methyl-1H-pyrazol-5-yl)-9H-pyrimido[4,5-b]indol-8-yloxy)propylamino)-5-oxopentanoic Acid] here?
The EC50 was < 50 nM.

For CCn1nc(C)cc1C(=O)Nc1nc2cc(C(N)=O)cc(OCCCO)c2n1C/C=C/Cn1c2nc(-c3cc(C)nn3CC)ncc2c2cc(C(N)=O)cc(OCCCNC(=O)OCCC(=O)O)c21 [Example 49, (E)-3-(3-(6-carbamoyl-9-(4-(5-carbamoyl-2-(1-ethyl-3-methyl-1H-pyrazole-5-carboxamido)-7-(3-hydroxypropoxy)-1H-benzo[d]imidazol-1-yl)but-2-enyl)-2-(1-ethyl-3-methyl-1H-pyrazol-5-yl)-9H-pyrimido[4,5-b]indol-8-yloxy)propylcarbamoyloxy)propanoic Acid], which EC50 is on record?
The EC50 was < 50 nM.

CCn1nc(C)cc1C(=O)Nc1nc2cc(C(N)=O)cc(OCCCOC)c2n1C/C=C/Cn1c2nc(-c3cc(C)nn3CC)ncc2c2cc(C(N)=O)cc(OCCCNC(=O)CCCC(=O)O)c21 [Example 50, (E)-5-(3-(6-carbamoyl-9-(4-(5-carbamoyl-2-(1-ethyl-3-methyl-1H-pyrazole-5-carboxamido)-7-(3-methoxypropoxy)-1H-benzo[d]imidazol-1-yl)but-2-enyl)-2-(1-ethyl-3-methyl-1H-pyrazol-5-yl)-9H-pyrimido[4,5-b]indol-8-yloxy)propylamino)-5-oxopentanoic Acid] was tested. Which EC50 did it give?
Its EC50 is < 50 nM.

How did the EC50 turn out when CCn1nc(C)cc1C(=O)Nc1nc2cc(C(N)=O)cc(OCCCOC)c2n1C/C=C/Cn1c2nc(-c3cc(C)nn3CC)ncc2c2cc(C(N)=O)cc(OCCCNC(=O)OCCC(=O)O)c21 [Example 51, (E)-3-(3-(6-carbamoyl-9-(4-(5-carbamoyl-2-(1-ethyl-3-methyl-1H-pyrazole-5-carboxamido)-7-(3-methoxypropoxy)-1H-benzo[d]imidazol-1-yl)but-2-enyl)-2-(1-ethyl-3-methyl-1H-pyrazol-5-yl)-9H-pyrimido[4,5-b]indol-8-yloxy)propylcarbamoyloxy)propanoic Acid] was run?
The EC50 was < 50 nM.

For CCn1nc(C)cc1C(=O)Nc1nc2cc(C(N)=O)cc(OCCCOC)c2n1C/C=C/Cn1c2nc(-c3cc(C)nn3CC)ncc2c2cc(C(N)=O)cc(OCCCOC(=O)NCCC(=O)O)c21 [Example 52, (E)-3-((3-(6-carbamoyl-9-(4-(5-carbamoyl-2-(1-ethyl-3-methyl-1H-pyrazole-5-carboxamido)-7-(3-methoxypropoxy)-1H-benzo[d]imidazol-1-yl)but-2-enyl)-2-(1-ethyl-3-methyl-1H-pyrazol-5-yl)-9H-pyrimido[4,5-b]indol-8-yloxy)propoxy)carbonylamino)propanoic Acid], which EC50 is on record?
Its EC50 is 50 to 200 nM.

CCn1nc(C)cc1C(=O)Nc1nc2cc(C(N)=O)cc(OCCCOC)c2n1C/C=C/Cn1c2nc(-c3cc(C)nn3CC)ncc2c2cc(C(N)=O)cc(OCCOCCOCCC(=O)O)c21 [Example 53, (E)-3-(2-(2-(6-carbamoyl-9-(4-(5-carbamoyl-2-(1-ethyl-3-methyl-1H-pyrazole-5-carboxamido)-7-(3-methoxypropoxy)-1H-benzo[d]imidazol-1-yl)but-2-enyl)-2-(1-ethyl-3-methyl-1H-pyrazol-5-yl)-9H-pyrimido[4,5-b]indol-8-yloxy)ethoxy)ethoxy)propanoic Acid] was tested. Which EC50 did it give?
Its EC50 is 50 to 200 nM.

CCn1nc(C)cc1C(=O)Nc1nc2cc(C(N)=O)cc(OCCCOC)c2n1C/C=C/Cn1c2nc(-c3cc(C)nn3CC)ncc2c2cc(C(N)=O)cc(OCCOCCOCCOCCC(=O)O)c21 [Example 54, (E)-3-(2-(2-(2-(6-carbamoyl-9-(4-(5-carbamoyl-2-(1-ethyl-3-methyl-1H-pyrazole-5-carboxamido)-7-(3-methoxypropoxy)-1H-benzo[d]imidazol-1-yl)but-2-enyl)-2-(1-ethyl-3-methyl-1H-pyrazol-5-yl)-9H-pyrimido[4,5-b]indol-8-yloxy)ethoxy)ethoxy)ethoxy)propanoic Acid] was tested. Which EC50 did it give?
Its EC50 is 50 to 200 nM.

With CCn1nc(C)cc1C(=O)Nc1nc2cc(C(N)=O)cc(OC)c2n1C/C=C/Cn1c2nc(-c3cc(C)nn3CC)ncc2c2cc(C(N)=O)cc(OCCC3CCN(CCCC(=O)O)CC3)c21 [Example 55, (E)-4-(4-(2-(6-carbamoyl-9-(4-(5-carbamoyl-2-(1-ethyl-3-methyl-1H-pyrazole-5-carboxamido)-7-methoxy-1H-benzo[d]imidazol-1-yl)but-2-enyl)-2-(1-ethyl-3-methyl-1H-pyrazol-5-yl)-9H-pyrimido[4,5-b]indol-8-yloxy)ethyl)piperidin-1-yl)butanoic Acid] as the compound, how does the EC50 read?
Its EC50 is 50 to 200 nM.

Reference: US10947227B2, “Tricyclic heterocyclic compounds as sting activators” (Incyte Corporation, priority 2018, dated 2021)
